The source made the active and inactive calls. No stated cut-off is given here; in the data, actives have a measured IC50 and inactives only a lower limit.
Each molecule was assayed against Envelope glycoprotein gp160 (Human immunodeficiency virus 1, UniProt Q6QLK5) (assay: inhibitors of HIV fusion peptide binding, primary screen, biochemical, uHTS, fluorescence dequenching (AID 1986)).
Envelope glycoprotein gp160, sequence (Q6QLK5 whole entry, the tested form may be a part): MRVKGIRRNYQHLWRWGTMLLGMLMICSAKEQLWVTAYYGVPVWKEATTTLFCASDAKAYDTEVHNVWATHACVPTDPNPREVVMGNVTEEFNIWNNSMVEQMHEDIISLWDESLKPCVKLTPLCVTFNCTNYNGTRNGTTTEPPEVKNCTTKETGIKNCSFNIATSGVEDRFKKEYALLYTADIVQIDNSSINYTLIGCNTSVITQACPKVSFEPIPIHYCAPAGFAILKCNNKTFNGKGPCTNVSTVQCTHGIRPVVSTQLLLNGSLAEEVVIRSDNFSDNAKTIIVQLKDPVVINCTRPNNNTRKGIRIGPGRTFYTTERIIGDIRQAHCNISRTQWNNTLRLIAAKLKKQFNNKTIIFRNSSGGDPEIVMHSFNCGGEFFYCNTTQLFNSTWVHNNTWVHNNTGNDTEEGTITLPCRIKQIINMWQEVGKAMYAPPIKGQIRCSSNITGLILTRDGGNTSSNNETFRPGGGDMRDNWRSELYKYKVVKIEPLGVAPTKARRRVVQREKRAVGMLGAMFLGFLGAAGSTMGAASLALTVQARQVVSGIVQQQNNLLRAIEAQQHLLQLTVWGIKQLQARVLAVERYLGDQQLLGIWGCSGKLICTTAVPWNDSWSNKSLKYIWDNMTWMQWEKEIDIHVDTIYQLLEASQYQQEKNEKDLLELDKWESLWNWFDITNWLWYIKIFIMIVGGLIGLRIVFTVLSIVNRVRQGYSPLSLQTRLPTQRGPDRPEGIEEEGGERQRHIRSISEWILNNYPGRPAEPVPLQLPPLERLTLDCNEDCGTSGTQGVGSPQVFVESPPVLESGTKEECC
For `CC(C)(C)OC(=O)N1CCC(c2cc(O)n3ncc(C(=O)Nc4ccc(F)c(Cl)c4)c3n2)CC1`, the IC50 was 82.2 µM (active).
With `CCOc1cc(Br)cc(C(c2c(C(=O)O)[nH]c3ccccc23)c2c(C(=O)O)[nH]c3ccccc23)c1O` the IC50 was 5.92 µM (active).
For `Cc1ccc(-c2nn(-c3ccccc3)cc2/C=C2\SC(=S)N(CC(=O)O)C2=O)cc1`, the IC50 was 12.3 µM (active).
For `Nc1c(S(=O)(=O)O)cc(NC(=O)c2ccccc2)c2c1C(=O)c1ccccc1C2=O`, the IC50 was 12.1 µM (active).
For `O=C1N/C(=N\c2ccccc2Cl)S/C1=C\c1cccc([N+](=O)[O-])c1O`, the IC50 was 22.1 µM (active).

Reference: ChEMBL document CHEMBL1201862, “PubChem BioAssay data set” (2004)
